Literature values as cited in patent publication US20060275504A1, “Methods and compositions for augmenting cancer chemotherapeutic agents” (TTY BIOPHARM COMPANY LIMITED, priority 2005, published 2006).

arsenic trioxide
complete remission (CR) rate (intravenously 10 mg/d, patients with relapsed acute promyelocytic leukemia): 90%

O=C1O[C@H]([C@@H](O)CO)C(O)=C1O [Ascorbic acid]
concentration exhibiting cytotoxic activity (MCF-7; MCF-7, ascorbic acid alone): 10^2-10^3 μM | effect on cytotoxicity of DOX, DDP and TX (MCF-7; MCF-7, ascorbic acid at non-cytotoxic (1 μM) and moderately cytotoxic (10^2 μM) concentration): improved the cytotoxicity of DOX, DDP and TX significantly | concentration exhibiting cytotoxic activity (MDA-MB-231; MDA-MB-231, ascorbic acid alone): 10^2-10^3 μM | effect on cytotoxicity of DOX, DDP and TX (MDA-MB-231; MDA-MB-231, ascorbic acid at non-cytotoxic (1 μM) and moderately cytotoxic (10^2 μM) concentration): improved the cytotoxicity of DOX, DDP and TX significantly

S1[As]2S[As]3S[As]2S[As]13 [As4S4, tetraarsenic tetraslfide]
complete remission rates (arsenic-containing substances other than arsenic trioxide (Wang Z. Y. 2001)): 84.9%
